Key:
[1] = test system: human breast cancer cell line MCF-7; assay: Test (c): inhibition of growth of human breast cancer cell line MCF-7 in cell culture; format: cell-based; details: MCF7, MCF-7 cell growth
Text: (c) An assay which determines the ability of a test compound to inhibit the growth of the human breast cancer cell line MCF-7 in cell culture. The test is similar to that described by Lippman et al. (Cancer Res., 1976, 36, 4595) and […]

[2] = test system: leukaemia cell line L1210; assay: Test (b): inhibition of growth of leukaemia cell line L1210 in cell culture; format: cell-based; details: Mus musculus
Text: (b) An assay which determines the ability of a test compound to inhibit the growth of the leukaemia cell line L1210 in cell culture. The test is similar to that described in UK Patent Specification No. 2065653B and has been described by Jones et al., J. Med. Chem., 1985, 28, 1468;

thymidylate synthase = biological target: T1, thymidylate synthase (Mus musculus, UniProt P07607); assay: Test (a): in vitro inhibition of thymidylate synthase; format: biochemical; details: partially purified thymidylate synthase from L1210 mouse leukaemia cells
T1 construct: Thymidylate synthase was obtained in partially purified form from L1210 mouse leukaemia cells; endogenous in cells; host or cells: L1210 mouse leukaemia cells (enzyme partially purified)
Text: (a) An in vitro assay which determines the ability of a test compound to inhibit the enzyme thymidylate synthase. Thymidylate synthase was obtained in partially purified form from L1210 mouse leukaemia cells and utilised using the procedures described by Jackman et al. (Cancer Res., 1986, 46, 2810 and Sikora et al., Biochem. Pharmacol. 1988, 37 4047);

[3] = test system: lymphoma cell line L5178Y TK-/-; assay: Test (d): cytotoxicity to lymphoma cell line L5178Y TK-/- in vitro; format: cell-based; details: Mus musculus
Text: (d) An assay which determines the ability of a test compound to be cytotoxic to the lymphoma cell line L5178Y TK-/- in vitro. The lymphoma cell line L5178Y TK-/- is deficient in the enzyme thymidine kinase with phosphorylates thymidine and thus operates to generate a pool of thymidylate when de novo synthesis of thymidylate is prevented by the presence of an effective amount of an inhibitor of thymidylate synthase. The L5178Y TK-/- cell line is thereby more sensitive to the presence of an inhibitor of thymidylate synthase. [L5178Y TK-/- was obtained by mutation of the parent L5178Y cell line which is described by, for example, Fischer et al., Methods in Medical Research, 1964, 10, 247].

[4] = test system: human breast, ovarian and liver cancer; details: clinical, in words; cited from earlier work
[5] = Cancer Treatment Reports, 1986, 70, 1335; in words; cited from earlier work

T1 sequence (P07607 whole entry): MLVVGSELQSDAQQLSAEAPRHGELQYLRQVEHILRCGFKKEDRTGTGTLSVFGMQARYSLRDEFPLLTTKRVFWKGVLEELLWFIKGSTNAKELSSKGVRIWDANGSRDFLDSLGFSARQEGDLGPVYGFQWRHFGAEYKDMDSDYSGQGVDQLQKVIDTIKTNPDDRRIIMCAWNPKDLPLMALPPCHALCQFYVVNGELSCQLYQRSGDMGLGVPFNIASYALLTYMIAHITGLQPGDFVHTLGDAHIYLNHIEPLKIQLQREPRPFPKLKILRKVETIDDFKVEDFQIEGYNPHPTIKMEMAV

Structure (SMILES)	IC50 [1] [nM]	IC50 [2] [nM]	IC50 (thymidylate synthase) [nM]	IC50 [3] [nM]	activity against human breast, ovarian and liver cancer [4]	toxicity in humans [5]
C#CCN(c1ccc(C(=O)N[C@@H](CCC(=O)O)C(=O)O)cc1)C1CCc2cc3nc(C)[nH]c(=O)c3cc21 (mixture of isomers) [Example 1, N-{p-[N-((6RS)-2-methyl-4-oxo-3,4,7,8-tetrahydro-6H-cyclopenta[g]quinazolin-6-yl)-N-(prop-2-ynyl)amino]benzoyl}-L-glutamic acid]	20	280	7	720	–	–
C#CCN(Cc1ccc2nc(N)[nH]c(=O)c2c1)c1ccc(C(=O)N[C@@H](CCC(=O)O)C(=O)O)cc1 [CB3717]	–	–	–	–	promising activity against human breast, ovarian and liver cancer	shows symptoms of toxicity in humans, particularly in relation to the liver and kidney
